Experimental data published in patent publication US12084473B2, “β-D-2′-deoxy-2′-α-fluoro-2′-β-C-substituted-2-modified-N6-substituted purine nucleotides for HCV treatment” (Atea Pharmaceuticals, Inc., priority 2015, dated 2024).
Read-outs that look alike come from different tables or passages of the source.

Experiments:
[1] = test system: HCV Genotype 4d, NS5B Mutation none; assay: microbe, parasite or virus in culture; assay type: cell-based
Procedure: (§1) Various patient-derived HCV genotypes containing wild-type and resistance-associated variants were used to determine their relative replication sensitivity to test compounds. Replicon resistance test vectors (RTVs) containing the NS5B genomic regions were prepared using viral RNA isolated from plasma of HCV patients. Each NS5B region was amplified by reverse-transcription polymerase chain reaction and cloned into an HCV replicon RTV which was then transferred by electroporation into Huh-7 cells.

[2] = test system: HCV Genotype 3a-2, NS5B Mutation none; assay: microbe, parasite or virus in culture; assay type: cell-based
Procedure: as §1

[3] = test system: HCV Genotype 1b, NS5B Mutation C316N; assay: microbe, parasite or virus in culture; assay type: cell-based
Procedure: as §1

[4] = test system: HCV Genotype 1a, NS5B Mutation L159F; assay: microbe, parasite or virus in culture; assay type: cell-based
Procedure: as §1

[5] = test system: HCV Genotype 1a, NS5B Mutation L159F and S282T; assay: microbe, parasite or virus in culture; assay type: cell-based
Procedure: as §1

[6] = test system: HCV Genotype 2a, NS5B Mutation none; assay: microbe, parasite or virus in culture; assay type: cell-based
Procedure: as §1

[7] = test system: HCV Genotype 1b, NS5B Mutation none; assay: microbe, parasite or virus in culture; assay type: cell-based
Procedure: as §1

[8] = test system: HCV Genotype 2b, NS5B Mutation none; assay: microbe, parasite or virus in culture; assay type: cell-based
Procedure: as §1

[9] = test system: HCV Genotype 1a, NS5B Mutation none; assay: microbe, parasite or virus in culture; assay type: cell-based
Procedure: as §1

[10] = test system: HCV Genotype 3a-1, NS5B Mutation none; assay: microbe, parasite or virus in culture; assay type: cell-based
Procedure: as §1

[11] = test system: HCV Genotype 4a, NS5B Mutation none; assay: microbe, parasite or virus in culture; assay type: cell-based
Procedure: as §1

Huh-7 luc/neo ET cells = assay: Cytotoxicity by XTT staining in replicon cells
Procedure: (§2) The plates were cultured for 24 hours prior to the addition of compounds. Six serial one half log dilutions of the test articles (high test concentration of 100.0 μM or high test concentration of 1.0 μM) and human interferon-alpha2b (high test 10.0 U/ml) were prepared in cell culture medium and added to the cultured cells in triplicate wells for each dilution. Six wells in the test plates received medium alone as an untreated control. Following 72 hours of culture in the presence of compound, one of the plates was used for the determination of cytotoxicity by staining with XTT and the other for antiviral efficacy by determination of luciferase reporter activity. Cytotoxicity and efficacy data were collected and imported into a customized Excel workbook for determination of the TC50 and EC50 values. […] The y-axis is the percent of virus control and the x-axis is the concentration of drug in μM. […] The y-axis is the percent of virus control and the x-axis is the concentration of drug in M.

[12] = Cytotoxicity by XTT staining in replicon cells; settings: human
Procedure: as §2

HCV S282T replicon = assay: microbe, parasite or virus in culture; assay type: cell-based
Procedure: A transient transfection assay was performed to determine the sensitivity of the […] of HCV to test compounds. Huh-7 cells were electroporated in the presence of RNA transcribed from wild type or S282T HCV replicon plasmids from the T7 promoter. The transfected cells were seeded in to 96-well plates at 7.5×10^3 cells per well in Dulbecco's Modified Eagle's medium. After 24 hr of incubation, medium was removed and replaced with fresh medium containing no or various concentrations of test compounds. Following an additional 96-hr incubation, the anti-HCV activity was measured by luciferase endpoint with Britelite™ Plus luminescence reporter gene kit (Perkin Elmer, Shelton, CT). Duplicate plates were treated and incubated in parallel for assessment of cellular toxicity by staining with the tetrazolium dye XTT.

[13] = test system: HCV genotype 1b luciferase reporter replicon; assay: microbe, parasite or virus in culture; assay type: cell-based
Procedure: as §2

[14] = test system: HCV genotype 1b luciferase reporter replicon; assay: microbe, parasite or virus in culture; assay type: cell-based; settings: Hepatitis C virus, HuH-7-Luc/Neo-ET, 72 h, read-out: HCV Replicon EC50/EC95: EC50
human hepatocytes = assay: Metabolic studies in primary hepatocytes; assay type: in vitro ADME; settings: 10 μM, 2-24 hr
Procedure: The metabolism of compounds 25, 27 and 5-2, at a concentration of 10 μM, were investigated in fresh primary cultures of human, dog and mouse hepatocytes. Plated hepatocytes from humans (XenoTech, mixed gender, pooled from 10 donors), male Beagle dog (BioreclamationIVT), and male ICR/CD-1 mice (BioreclamationIVT, 8 donors) in 6-well plates with matrigel overlay were incubated in singlet with 10 μM TA. After 2, 4, 6, 8 or 24 hr, intracellular levels of nucleotide prodrugs and their potential metabolites (prodrugs, monophosphates, triphosphates and nucleosides) were quantitated by LC-MS/MS. Concentrations below the lower limit of quantitation (1.5 pmol/10^6 cells for prodrugs, monophosphates and nucleosides and 12 pmol/10^6 cells for triphosphates) were extrapolated from the standard curves.

[15] = Hepatitis C virus, 96 h, read-out: IC50 Value
[16] = Hepatitis C virus, read-out: IC50 Value
[17] = genotype 3a-2, no NS5B mutation
[18] = genotype 1a, NS5B L159F and S282T
[19] = genotype 3a-1, no NS5B mutation

SMILES: CC(C)OC(=O)[C@H](C)N[P@](=O)(OCC1O[C@@H](n2cnc3c(N(C)C)nc(N)nc32)[C@](C)(F)[C@@H]1O)Oc1ccccc1 (stereo partly drawn) [Compound 25, isopropyl ((((S)-(2R,3R,4R,5R)-5-(2-amino-6-(dimethylamino)-9H-purin-9-yl)-4-fluoro-3-hydroxy-4-methyltetrahydrofuran-2-yl)methoxy)-phenoxy-phosphoryl)-L-alaninate]
- IC50 [1, 15]: 5.9 nM
- Fold Change in IC50 from Sofosbuvir ([1]; genotype 4d, no NS5B mutation): 16.0
- Fold Change in IC95 from Sofosbuvir ([1]; genotype 4d, no NS5B mutation): 23.1
- IC95 Value ([1]; genotype 4d, no NS5B mutation): 44.2 nM
- IC50 [2, 16]: 4.7 nM
- Fold Change in IC50 from Sofosbuvir [2, 17]: 26.3
- Fold Change in IC95 from Sofosbuvir [2, 17]: 33.4
- IC95 Value [2, 17]: 24.2 nM
- cross-resistance to C316N mutant [3]: neither 25, 27 nor 5-2 compound showed any evidence of cross-resistance
- IC50 [3, 16]: 3.2 nM
- Fold Change in IC50 from Sofosbuvir ([3]; genotype 1b, NS5B C316N): 23.1
- Fold Change in IC95 from Sofosbuvir ([3]; genotype 1b, NS5B C316N): 26.2
- IC95 Value ([3]; genotype 1b, NS5B C316N): 18.1 nM
- cross-resistance to L159F mutant [4]: neither 25, 27 nor 5-2 compound showed any evidence of cross-resistance
- IC50 [4, 16]: 5.2 nM
- Fold Change in IC50 from Sofosbuvir ([4]; genotype 1a, NS5B L159F): 22.0
- Fold Change in IC95 from Sofosbuvir ([4]; genotype 1a, NS5B L159F): 26.4
- IC95 Value ([4]; genotype 1a, NS5B L159F): 40.4 nM
- cross-resistance to L159F and S282T mutant [5]: neither 25, 27 nor 5-2 compound showed any evidence of cross-resistance
- IC50 [5, 16]: 17.2 nM
- Fold Change in IC50 from Sofosbuvir [5, 18]: 94.0
- Fold Change in IC95 from Sofosbuvir [5, 18]: 107.0
- IC95 Value [5, 18]: 158.5 nM
- IC50 [6, 16]: 2.7 nM
- Fold Change in IC50 from Sofosbuvir ([6]; genotype 2a, no NS5B mutation): 8.4
- Fold Change in IC95 from Sofosbuvir ([6]; genotype 2a, no NS5B mutation): 8.8
- IC95 Value ([6]; genotype 2a, no NS5B mutation): 22.2 nM
- IC50 [7, 16]: 5.9 nM
- Fold Change in IC50 from Sofosbuvir ([7]; genotype 1b, no NS5B mutation): 1.0
- Fold Change in IC95 from Sofosbuvir ([7]; genotype 1b, no NS5B mutation): 20.0
- IC95 Value ([7]; genotype 1b, no NS5B mutation): 32.0 nM
- IC50 [8, 16]: 3 nM
- Fold Change in IC50 from Sofosbuvir ([8]; genotype 2b, no NS5B mutation): 15.2
- Fold Change in IC95 from Sofosbuvir ([8]; genotype 2b, no NS5B mutation): 19.9
- IC95 Value ([8]; genotype 2b, no NS5B mutation): 14.9 nM
- IC50 [9, 16]: 4.4 nM
- Fold Change in IC50 from Sofosbuvir ([9]; genotype 1a, no NS5B mutation): 14.2
- Fold Change in IC95 from Sofosbuvir ([9]; genotype 1a, no NS5B mutation): 16.2
- IC95 Value ([9]; genotype 1a, no NS5B mutation): 31.3 nM
- IC50 [10, 16]: 5.1 nM
- Fold Change in IC50 from Sofosbuvir [10, 19]: 24.5
- Fold Change in IC95 from Sofosbuvir [10, 19]: 24.8
- IC95 Value [10, 19]: 27.8 nM
- IC50 [11, 16]: 4.6 nM
- Fold Change in IC50 from Sofosbuvir ([11]; genotype 4a, no NS5B mutation): 16.2
- Fold Change in IC95 from Sofosbuvir ([11]; genotype 4a, no NS5B mutation): 20.7
- IC95 Value ([11]; genotype 4a, no NS5B mutation): 33.0 nM
- CC50 (Huh-7 luc/neo ET cells; read-out: HCV Replicon CC50, XTT, 72 hours): > 100000 nM
- CC50 (Huh-7 luc/neo ET cells; read-out: TC50, FIG. 3 legend): > 100000 nM
- CC50 at 72 h [12]: > 100000 nM
- cross-resistance to S282T variant (HCV S282T replicon): neither 25, 27, nor 5-2 compounds showed any evidence of cross-resistance
- IC50 (HCV S282T replicon; [15]): < 1 nM
- Fold Change in IC50 from Sofosbuvir (HCV S282T replicon; NS5B Mutation S282T): >278
- Fold Change in IC95 from Sofosbuvir (HCV S282T replicon; NS5B Mutation S282T): >106.4
- IC95 Value (HCV S282T replicon; NS5B Mutation S282T, transient assay, 96-hr): 9.4 nM
- fold increase in activity (versus parent nucleoside) [13]: ≥ 2,600
- EC95 ([13]; Hepatitis C virus, Huh-7 luc/neo ET cells, 72 hours, luciferase, read-out: HCV Replicon EC50/EC95: EC95): 19 nM
- EC50 ([13]; Hepatitis C virus, read-out: EC50 in a replicon assay): 4 nM
- Fold increase in activity compared to parent nucleoside ([13]; Table 7): >2,600
- EC50 [14]: 4 nM
- predominant metabolite observed in cultured human hepatocytes (human hepatocytes): β-D-2′-deoxy-2′-α-fluoro-2′-β-methyl-guanine triphosphate
